From ChEMBL document CHEMBL5465560, “Selectivity Literature for EUbOPEN Chemogenomic Library” (2024)

Legend:
[1] = biological target: LIM domain kinase 1 (Homo sapiens) (UniProt P53667); conditions: at 10 µM
[2] = biological target: T1, Myosin-IIIb (Homo sapiens) (UniProt Q8WXR4); assay: Selectivity interaction (KinomeScan (DiscoverX)) EUB0000092b MYO3B; conditions: at 10 µM
T1 sequence (whole entry): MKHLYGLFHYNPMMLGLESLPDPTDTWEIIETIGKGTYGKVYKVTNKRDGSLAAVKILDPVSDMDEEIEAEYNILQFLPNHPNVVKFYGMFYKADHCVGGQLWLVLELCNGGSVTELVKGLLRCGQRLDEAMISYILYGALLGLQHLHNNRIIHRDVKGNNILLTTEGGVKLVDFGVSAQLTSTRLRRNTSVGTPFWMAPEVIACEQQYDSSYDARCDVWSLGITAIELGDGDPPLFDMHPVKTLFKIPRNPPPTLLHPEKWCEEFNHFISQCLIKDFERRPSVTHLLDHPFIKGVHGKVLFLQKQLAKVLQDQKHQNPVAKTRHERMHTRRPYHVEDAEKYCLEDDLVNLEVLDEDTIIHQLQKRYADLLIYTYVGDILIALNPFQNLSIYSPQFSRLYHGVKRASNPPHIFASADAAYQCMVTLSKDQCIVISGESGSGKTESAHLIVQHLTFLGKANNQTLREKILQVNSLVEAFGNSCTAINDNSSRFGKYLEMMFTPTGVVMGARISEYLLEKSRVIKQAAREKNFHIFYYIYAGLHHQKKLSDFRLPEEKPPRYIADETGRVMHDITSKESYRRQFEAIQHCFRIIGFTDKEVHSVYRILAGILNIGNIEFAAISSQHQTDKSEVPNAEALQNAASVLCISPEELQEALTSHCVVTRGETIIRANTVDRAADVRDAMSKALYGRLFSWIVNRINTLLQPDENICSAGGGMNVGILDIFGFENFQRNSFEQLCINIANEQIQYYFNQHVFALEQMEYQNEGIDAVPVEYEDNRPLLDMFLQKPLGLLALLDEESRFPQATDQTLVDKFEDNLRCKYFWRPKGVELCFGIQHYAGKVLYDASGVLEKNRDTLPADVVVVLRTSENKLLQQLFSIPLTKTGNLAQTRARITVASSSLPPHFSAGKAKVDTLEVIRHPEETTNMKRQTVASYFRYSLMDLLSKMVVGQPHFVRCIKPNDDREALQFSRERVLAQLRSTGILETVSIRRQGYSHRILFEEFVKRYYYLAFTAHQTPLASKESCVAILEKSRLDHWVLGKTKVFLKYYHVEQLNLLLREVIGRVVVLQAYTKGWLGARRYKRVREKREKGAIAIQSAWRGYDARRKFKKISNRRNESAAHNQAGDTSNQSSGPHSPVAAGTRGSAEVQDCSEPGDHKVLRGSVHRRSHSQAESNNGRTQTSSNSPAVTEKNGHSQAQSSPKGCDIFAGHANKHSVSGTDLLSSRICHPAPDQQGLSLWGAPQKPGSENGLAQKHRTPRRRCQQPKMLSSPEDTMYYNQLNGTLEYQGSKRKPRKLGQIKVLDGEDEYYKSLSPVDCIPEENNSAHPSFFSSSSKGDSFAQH

[3] = biological target: Calcium/calmodulin-dependent protein kinase kinase 2 (Homo sapiens) (UniProt Q96RR4); assay: Selectivity interaction (KinomeScan (DiscoverX)) EUB0000655a CAMKK2; conditions: at 10 µM
[4] = biological target: Serine/threonine-protein kinase WNK1 (Homo sapiens) (UniProt Q9H4A3); assay: Selectivity interaction (ProQinase) EUB0000171b WNK1
[5] = biological target: T2, Calcium/calmodulin-dependent protein kinase type IV (Homo sapiens) (UniProt Q16566); assay: Selectivity interaction (Kinase panel (KiNativ target engagement assay in Jurkat cells)) EUB0001635a CAMK4; format: cell-based; conditions: Selectivity number of off-targets 0.0, Selectivity number of targets 233.0, Source Knowledge https://www.sciencedirect.com/science/article/pii/S2451945619300674?via%3Dihub, at 1 µM
T2 sequence (whole entry): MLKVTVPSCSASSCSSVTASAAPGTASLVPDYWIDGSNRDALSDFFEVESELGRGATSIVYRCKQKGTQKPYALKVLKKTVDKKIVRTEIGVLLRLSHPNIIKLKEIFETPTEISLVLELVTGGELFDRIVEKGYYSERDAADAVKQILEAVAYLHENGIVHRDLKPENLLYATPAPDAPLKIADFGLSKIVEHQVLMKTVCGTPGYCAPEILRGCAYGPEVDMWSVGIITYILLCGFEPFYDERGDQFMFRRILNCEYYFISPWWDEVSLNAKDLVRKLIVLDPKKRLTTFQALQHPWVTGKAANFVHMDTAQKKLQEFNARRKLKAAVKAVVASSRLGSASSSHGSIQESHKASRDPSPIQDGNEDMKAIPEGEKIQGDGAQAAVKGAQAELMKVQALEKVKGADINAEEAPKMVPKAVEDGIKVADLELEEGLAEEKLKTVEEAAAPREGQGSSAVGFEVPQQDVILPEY

[6] = biological target: T3, Serine/threonine-protein kinase Nek11 (Homo sapiens) (UniProt Q8NG66); assay: Selectivity interaction (KinomeScan (DiscoverX)) EUB0000045b NEK11
T3 sequence (whole entry): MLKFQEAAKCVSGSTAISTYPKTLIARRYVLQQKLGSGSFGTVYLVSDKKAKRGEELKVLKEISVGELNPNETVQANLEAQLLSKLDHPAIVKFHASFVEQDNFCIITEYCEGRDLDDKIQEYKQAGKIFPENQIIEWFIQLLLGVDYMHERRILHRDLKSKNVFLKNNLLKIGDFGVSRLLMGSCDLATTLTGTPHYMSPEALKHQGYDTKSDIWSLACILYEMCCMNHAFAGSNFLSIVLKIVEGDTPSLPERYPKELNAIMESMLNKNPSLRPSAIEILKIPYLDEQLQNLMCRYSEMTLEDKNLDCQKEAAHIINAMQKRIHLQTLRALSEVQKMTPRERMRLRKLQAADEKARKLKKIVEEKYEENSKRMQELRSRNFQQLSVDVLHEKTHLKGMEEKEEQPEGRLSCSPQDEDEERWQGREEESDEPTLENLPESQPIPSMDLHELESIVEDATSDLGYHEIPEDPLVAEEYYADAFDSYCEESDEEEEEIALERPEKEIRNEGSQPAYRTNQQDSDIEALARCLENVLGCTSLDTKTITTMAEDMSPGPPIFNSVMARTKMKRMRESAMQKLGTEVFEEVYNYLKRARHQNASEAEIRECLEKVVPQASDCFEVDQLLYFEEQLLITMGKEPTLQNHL

[7] = biological target: Phosphatidylinositol 4,5-bisphosphate 3-kinase catalytic subunit gamma isoform (Homo sapiens) (UniProt P48736); assay: Selectivity interaction (KinomeScan (DiscoverX)) EUB0000045b PIK3CG
Chain of Phosphatidylinositol 4,5-bisphosphate 3-kinase catalytic subunit gamma isoform (Homo sapiens) (P48736 whole entry, looked up, canonical isoform): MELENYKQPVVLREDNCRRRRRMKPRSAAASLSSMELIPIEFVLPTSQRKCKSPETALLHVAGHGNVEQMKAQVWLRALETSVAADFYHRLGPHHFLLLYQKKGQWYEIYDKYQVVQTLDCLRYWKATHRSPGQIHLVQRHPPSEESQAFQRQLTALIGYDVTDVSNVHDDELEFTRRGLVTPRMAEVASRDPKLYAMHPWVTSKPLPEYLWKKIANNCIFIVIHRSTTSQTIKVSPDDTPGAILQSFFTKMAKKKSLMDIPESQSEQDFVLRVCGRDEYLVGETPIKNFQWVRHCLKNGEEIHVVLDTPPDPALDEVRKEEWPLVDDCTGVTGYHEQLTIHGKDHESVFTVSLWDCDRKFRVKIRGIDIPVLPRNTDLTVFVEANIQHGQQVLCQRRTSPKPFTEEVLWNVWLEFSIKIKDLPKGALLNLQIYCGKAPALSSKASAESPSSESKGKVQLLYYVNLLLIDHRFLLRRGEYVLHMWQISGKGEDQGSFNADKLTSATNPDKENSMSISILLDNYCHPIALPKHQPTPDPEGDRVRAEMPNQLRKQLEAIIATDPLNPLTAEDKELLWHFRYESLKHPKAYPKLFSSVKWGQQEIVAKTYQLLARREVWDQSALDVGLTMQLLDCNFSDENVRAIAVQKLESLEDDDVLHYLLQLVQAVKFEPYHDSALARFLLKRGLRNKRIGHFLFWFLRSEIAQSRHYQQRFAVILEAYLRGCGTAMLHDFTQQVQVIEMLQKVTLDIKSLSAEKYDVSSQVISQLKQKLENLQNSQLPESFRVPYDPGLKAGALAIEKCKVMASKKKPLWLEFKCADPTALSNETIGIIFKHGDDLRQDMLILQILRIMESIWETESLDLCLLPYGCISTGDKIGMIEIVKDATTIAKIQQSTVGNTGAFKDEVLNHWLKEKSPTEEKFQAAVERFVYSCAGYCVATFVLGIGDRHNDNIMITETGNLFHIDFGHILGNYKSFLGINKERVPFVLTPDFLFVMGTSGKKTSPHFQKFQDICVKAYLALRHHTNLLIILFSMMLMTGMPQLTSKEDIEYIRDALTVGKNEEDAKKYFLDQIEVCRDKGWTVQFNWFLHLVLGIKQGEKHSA

Chain of Serine/threonine-protein kinase WNK1 (Homo sapiens) (Q9H4A3 whole entry, looked up): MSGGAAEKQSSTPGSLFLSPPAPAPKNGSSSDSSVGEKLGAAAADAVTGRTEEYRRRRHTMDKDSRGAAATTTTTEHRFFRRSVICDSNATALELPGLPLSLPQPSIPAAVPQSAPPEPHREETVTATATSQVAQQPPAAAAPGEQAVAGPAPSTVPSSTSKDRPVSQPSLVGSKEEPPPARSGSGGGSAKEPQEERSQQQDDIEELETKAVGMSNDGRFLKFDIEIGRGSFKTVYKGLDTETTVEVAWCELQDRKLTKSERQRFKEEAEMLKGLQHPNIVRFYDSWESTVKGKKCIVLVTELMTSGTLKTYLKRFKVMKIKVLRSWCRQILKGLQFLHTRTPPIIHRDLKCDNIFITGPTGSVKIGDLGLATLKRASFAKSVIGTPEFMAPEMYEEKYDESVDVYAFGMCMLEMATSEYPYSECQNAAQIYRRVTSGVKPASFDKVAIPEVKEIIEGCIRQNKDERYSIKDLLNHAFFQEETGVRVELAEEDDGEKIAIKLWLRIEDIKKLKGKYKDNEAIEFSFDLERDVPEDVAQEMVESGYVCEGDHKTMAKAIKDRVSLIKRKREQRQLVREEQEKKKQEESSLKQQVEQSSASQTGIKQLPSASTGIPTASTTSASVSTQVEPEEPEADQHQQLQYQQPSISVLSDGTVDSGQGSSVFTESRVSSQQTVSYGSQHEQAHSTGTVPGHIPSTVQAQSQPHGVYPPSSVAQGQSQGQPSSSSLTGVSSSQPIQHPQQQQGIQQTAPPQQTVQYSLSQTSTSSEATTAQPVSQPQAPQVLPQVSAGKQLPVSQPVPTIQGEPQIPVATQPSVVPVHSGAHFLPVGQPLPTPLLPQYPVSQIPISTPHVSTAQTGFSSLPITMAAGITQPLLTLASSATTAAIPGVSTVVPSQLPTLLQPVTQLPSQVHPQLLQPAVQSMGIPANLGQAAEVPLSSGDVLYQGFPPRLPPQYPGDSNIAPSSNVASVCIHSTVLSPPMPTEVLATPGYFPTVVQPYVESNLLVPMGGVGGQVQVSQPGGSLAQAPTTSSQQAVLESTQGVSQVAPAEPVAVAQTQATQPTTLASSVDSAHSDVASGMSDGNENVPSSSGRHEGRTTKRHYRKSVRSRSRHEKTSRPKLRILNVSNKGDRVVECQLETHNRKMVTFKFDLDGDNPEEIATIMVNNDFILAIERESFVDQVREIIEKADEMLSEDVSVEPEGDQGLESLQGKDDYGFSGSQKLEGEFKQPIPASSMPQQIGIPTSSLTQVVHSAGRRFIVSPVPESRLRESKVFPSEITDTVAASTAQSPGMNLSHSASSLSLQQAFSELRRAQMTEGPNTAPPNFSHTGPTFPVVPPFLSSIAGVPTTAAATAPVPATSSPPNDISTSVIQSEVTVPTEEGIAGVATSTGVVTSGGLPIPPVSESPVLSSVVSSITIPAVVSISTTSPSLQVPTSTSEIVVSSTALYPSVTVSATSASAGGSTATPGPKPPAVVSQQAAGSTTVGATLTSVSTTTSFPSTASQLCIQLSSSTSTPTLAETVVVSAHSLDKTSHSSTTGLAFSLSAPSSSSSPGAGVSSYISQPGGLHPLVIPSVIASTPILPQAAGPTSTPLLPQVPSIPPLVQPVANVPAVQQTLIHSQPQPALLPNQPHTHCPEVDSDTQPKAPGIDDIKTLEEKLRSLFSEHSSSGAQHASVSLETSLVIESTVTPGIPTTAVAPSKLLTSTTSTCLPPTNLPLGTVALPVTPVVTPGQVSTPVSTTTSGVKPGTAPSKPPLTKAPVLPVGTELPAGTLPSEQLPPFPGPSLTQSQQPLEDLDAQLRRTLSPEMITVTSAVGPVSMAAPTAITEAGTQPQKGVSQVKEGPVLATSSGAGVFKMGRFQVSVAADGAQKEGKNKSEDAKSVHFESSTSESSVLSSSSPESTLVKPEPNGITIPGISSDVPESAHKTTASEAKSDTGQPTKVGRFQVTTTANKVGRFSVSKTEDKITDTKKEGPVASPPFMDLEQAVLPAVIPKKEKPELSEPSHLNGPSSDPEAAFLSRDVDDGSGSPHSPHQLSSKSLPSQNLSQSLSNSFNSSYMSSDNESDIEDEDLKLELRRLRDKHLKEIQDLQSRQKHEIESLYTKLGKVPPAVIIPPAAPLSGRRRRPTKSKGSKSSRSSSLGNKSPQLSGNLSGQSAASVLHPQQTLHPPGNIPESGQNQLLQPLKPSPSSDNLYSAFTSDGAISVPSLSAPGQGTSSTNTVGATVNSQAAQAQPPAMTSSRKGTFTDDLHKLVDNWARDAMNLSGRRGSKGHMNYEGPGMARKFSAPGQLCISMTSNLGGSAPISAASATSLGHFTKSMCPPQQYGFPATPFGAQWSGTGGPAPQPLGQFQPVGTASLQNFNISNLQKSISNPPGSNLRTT
Chain of LIM domain kinase 1 (Homo sapiens) (P53667 whole entry, looked up, the tested form may be a part): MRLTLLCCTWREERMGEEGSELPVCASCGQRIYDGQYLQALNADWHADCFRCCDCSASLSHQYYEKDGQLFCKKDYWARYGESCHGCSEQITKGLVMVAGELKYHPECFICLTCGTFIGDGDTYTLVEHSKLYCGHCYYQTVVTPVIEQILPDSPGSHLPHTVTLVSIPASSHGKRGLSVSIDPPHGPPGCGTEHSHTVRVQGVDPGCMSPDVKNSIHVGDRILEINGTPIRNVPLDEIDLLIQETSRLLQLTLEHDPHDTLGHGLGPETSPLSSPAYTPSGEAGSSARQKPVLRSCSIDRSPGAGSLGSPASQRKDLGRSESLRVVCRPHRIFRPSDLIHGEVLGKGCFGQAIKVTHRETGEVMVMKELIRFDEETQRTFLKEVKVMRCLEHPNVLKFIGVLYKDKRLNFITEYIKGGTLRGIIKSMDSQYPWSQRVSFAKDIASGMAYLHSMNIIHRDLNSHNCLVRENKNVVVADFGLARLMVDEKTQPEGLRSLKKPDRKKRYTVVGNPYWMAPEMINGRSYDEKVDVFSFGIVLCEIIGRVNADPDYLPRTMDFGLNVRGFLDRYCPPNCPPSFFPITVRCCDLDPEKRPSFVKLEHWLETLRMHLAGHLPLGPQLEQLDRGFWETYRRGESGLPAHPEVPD
Chain of Calcium/calmodulin-dependent protein kinase kinase 2 (Homo sapiens) (Q96RR4 2-588 limits assumed): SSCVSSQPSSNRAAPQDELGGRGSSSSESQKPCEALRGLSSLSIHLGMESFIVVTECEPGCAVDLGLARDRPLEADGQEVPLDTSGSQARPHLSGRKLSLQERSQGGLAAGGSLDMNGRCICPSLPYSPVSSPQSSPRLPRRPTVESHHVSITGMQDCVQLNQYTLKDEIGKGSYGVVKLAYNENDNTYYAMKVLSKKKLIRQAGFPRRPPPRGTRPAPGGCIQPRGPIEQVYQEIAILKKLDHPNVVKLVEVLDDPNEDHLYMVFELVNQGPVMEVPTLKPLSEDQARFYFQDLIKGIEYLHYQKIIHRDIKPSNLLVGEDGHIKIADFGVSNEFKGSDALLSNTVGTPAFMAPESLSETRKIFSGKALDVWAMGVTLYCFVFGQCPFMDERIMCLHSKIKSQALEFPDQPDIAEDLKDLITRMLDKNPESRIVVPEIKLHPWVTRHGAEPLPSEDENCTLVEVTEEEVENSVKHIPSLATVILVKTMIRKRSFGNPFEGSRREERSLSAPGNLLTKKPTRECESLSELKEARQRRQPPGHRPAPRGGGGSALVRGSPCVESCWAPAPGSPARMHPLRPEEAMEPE

**Q.** How did the % of control [1] turn out when `CCN(CC)CCCCNc1ncc2cc(-c3cc(OC)cc(OC)c3)c(NC(=O)NC(C)(C)C)nc2n1` was run?
**A.** 100%

**Q.** With `CCC(=O)N1CCN(c2ccc(-n3c(=O)ccc4cnc5ccc(-c6cnc7ccccc7c6)cc5c43)cc2C(F)(F)F)CC1` as the molecule, how does the % of control [2] read?
**A.** 100%

**Q.** With `CN(C)CCOc1ccc(-c2nc(-c3ccncc3)c(-c3ccc4c(c3)CC/C4=N\O)[nH]2)cc1` as the molecule, how does the % of control [3] read?
**A.** 88%

**Q.** Which results are given for `C=CC(=O)Nc1cccc(C(=O)Nc2ccc(Nc3cc(-c4[nH]c(SC)nc4C)ccn3)cc2)c1`?
**A.** % of control ([4]; at 1 µM): 95%; % of control ([4]; at 5 µM): 81%

**Q.** For `C=CC(=O)Nc1ccc(C(=O)Nc2[nH]nc3c2CN(C(=O)N[C@H](CN(C)C)c2ccccc2)C3(C)C)cc1`, which % of engagement [5] is on record?
**A.** 4.5%

**Q.** What does the source list for `C=CC(=O)Nc1cc(-n2c(=O)ccc3cnc4ccc(-c5ccc(NS(C)(=O)=O)cc5)cc4c32)ccc1C`?
**A.** % of control ([6]; at 1 µM): 100%; % of control ([6]; at 10 µM): 100%; % of control ([7]; at 1 µM): 2.8%; % of control ([7]; at 10 µM): 0%
